Results: article PMC12621043, “Un-LOK-ing a New Approach for Conformational Selective Targeting of STK10 (LOK)” (ACS Medicinal Chemistry Letters, 2025)

Legend:
Test in all cases: DSF Tm panel
Assay type in all cases: binding
Conditions in all cases: 10 μM compound
[1] = biological target: T1, FGFR3A (Homo sapiens, UniProt P22607)
T1 construct: purchased in-house DSF kinase panel (SGC-style construct names; the trailing letter is the construct ID)

[2] = biological target: T2, CAMK1GA (Homo sapiens, UniProt Q96NX5)
T2 construct: purchased in-house DSF kinase panel (SGC-style construct names; the trailing letter is the construct ID)

[3] = biological target: T3, BRPF1B (Homo sapiens, UniProt P55201)
T3 construct: purchased in-house DSF kinase panel (SGC-style construct names; the trailing letter is the construct ID)
T3 sequence (P55201 1-1214): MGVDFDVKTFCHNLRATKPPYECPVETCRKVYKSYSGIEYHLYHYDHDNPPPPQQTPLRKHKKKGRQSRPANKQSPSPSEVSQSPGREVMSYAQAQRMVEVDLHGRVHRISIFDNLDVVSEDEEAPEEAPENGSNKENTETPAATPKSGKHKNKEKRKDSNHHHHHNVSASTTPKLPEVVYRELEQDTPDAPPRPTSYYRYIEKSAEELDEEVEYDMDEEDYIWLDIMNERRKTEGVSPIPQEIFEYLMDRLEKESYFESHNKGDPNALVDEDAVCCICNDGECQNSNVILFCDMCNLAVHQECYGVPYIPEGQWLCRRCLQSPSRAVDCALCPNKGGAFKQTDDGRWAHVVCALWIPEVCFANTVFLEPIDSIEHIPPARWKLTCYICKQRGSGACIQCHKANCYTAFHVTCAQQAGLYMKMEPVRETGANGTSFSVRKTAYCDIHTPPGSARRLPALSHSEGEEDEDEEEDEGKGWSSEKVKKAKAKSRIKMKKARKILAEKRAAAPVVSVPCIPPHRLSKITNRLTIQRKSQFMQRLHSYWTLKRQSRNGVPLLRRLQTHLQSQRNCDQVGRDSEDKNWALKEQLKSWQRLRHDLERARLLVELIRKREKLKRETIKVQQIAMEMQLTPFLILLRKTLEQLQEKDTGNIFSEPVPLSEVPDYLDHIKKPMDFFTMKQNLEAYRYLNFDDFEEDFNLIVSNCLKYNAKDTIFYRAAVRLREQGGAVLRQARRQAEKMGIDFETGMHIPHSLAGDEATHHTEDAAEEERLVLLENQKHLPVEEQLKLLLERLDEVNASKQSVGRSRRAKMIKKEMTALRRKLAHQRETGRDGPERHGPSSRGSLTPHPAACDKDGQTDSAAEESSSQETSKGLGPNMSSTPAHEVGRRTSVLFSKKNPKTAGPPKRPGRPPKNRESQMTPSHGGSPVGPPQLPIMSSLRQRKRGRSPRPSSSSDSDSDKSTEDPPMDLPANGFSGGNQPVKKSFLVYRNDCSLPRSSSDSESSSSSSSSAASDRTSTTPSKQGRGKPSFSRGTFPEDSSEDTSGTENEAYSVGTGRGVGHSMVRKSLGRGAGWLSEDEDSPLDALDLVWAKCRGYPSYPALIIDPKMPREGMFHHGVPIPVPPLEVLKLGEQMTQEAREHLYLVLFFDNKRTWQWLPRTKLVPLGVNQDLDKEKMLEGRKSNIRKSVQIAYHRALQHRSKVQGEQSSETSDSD

[4] = biological target: T4, MAPKAPK2A (Homo sapiens, UniProt P49137)
T4 construct: purchased in-house DSF kinase panel (SGC-style construct names; the trailing letter is the construct ID)

[5] = biological target: T5, NEK2A (Homo sapiens, UniProt P51955)
T5 construct: purchased in-house DSF kinase panel (SGC-style construct names; the trailing letter is the construct ID)
T5 sequence (P51955 1-271): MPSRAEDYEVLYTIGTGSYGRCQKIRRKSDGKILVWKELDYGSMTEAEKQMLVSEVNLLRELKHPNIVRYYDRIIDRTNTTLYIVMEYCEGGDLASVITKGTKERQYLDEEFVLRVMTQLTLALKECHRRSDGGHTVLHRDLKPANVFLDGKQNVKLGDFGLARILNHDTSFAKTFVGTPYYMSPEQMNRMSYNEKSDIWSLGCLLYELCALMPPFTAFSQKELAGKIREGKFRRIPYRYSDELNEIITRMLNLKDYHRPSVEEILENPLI

[6] = biological target: T6, AURKBA (Homo sapiens, UniProt Q96GD4)
T6 construct: purchased in-house DSF kinase panel (SGC-style construct names; the trailing letter is the construct ID)

[7] = biological target: T7, NEK7A (Homo sapiens, UniProt Q8TDX7)
T7 construct: purchased in-house DSF kinase panel (SGC-style construct names; the trailing letter is the construct ID)

[8] = test system: RPS6KA5A
Description: The synthesized urea-based derivatives were evaluated in a panel of kinases by differential scanning fluorescence (DSF) to investigate their selectivity profile. A positive ΔT m in the DSF assay indicates stabilization of the protein upon ligand binding in comparison to its apo state, with higher thermal shifts generally correlating with stronger binding. For this purpose, we used our internal kinase selectivity panel (∼90 kinases) along with staurosporine as a positive control. […]
was performed as previously described.[1,2] Briefly, recombinant protein kinase domains at a concentration of 2 μM were mixed with 10 μM compound in a buffer containing 20 mM HEPES, […]
probe (1 µl per mL). Subsequently, temperature-dependent protein unfolding profiles were […]
The temperature was raised with a step rate of 3 °C per minute. […]
inflection point of the transition curve. […]
previously.[3] In brief, STK10, STK3, STK4 and SLK were obtained as plasmids cloned in […]
Plasmids were transfected into
KD concentration taken from TracerDB (tracerdb.org)[4] were pipetted into white 384-well

[9] = biological target: T8, MAPK8B (Homo sapiens, UniProt P45983)
T8 construct: purchased in-house DSF kinase panel (SGC-style construct names; the trailing letter is the construct ID)

[10] = biological target: T9, MSSK1A (Homo sapiens, UniProt Q9UPE1)
T9 construct: purchased in-house DSF kinase panel (SGC-style construct names; the trailing letter is the construct ID)
T9 sequence (Q9UPE1 79-565): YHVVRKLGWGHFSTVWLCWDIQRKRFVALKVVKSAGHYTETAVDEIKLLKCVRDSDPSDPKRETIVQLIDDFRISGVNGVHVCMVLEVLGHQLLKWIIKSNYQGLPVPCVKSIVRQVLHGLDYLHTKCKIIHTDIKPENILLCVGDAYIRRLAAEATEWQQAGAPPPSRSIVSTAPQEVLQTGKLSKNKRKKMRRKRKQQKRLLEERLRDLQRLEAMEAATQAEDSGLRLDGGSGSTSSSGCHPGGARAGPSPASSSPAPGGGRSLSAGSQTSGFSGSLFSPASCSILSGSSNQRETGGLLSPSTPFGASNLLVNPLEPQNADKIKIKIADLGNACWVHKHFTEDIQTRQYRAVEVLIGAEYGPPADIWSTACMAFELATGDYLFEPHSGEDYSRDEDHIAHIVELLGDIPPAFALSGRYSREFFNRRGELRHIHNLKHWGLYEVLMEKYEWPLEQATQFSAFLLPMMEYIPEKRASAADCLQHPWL

T1 sequence (P22607 472-761): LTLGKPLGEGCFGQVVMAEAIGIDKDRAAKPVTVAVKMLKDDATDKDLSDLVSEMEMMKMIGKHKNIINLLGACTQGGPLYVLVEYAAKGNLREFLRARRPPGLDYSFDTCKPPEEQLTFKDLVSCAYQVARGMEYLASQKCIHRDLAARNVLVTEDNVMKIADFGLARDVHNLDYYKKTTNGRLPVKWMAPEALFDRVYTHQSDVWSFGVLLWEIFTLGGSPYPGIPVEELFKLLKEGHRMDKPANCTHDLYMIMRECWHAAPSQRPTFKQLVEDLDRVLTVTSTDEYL
T2 sequence (Q96NX5 18-316): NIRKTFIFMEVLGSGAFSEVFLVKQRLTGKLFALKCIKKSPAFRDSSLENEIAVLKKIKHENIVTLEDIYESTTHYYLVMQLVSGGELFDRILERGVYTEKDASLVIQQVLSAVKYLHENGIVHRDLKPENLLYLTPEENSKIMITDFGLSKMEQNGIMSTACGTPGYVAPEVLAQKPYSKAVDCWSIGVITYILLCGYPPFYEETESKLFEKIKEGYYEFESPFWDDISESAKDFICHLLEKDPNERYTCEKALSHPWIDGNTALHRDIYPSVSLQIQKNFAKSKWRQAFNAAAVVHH
T8 sequence (P45983 1-364): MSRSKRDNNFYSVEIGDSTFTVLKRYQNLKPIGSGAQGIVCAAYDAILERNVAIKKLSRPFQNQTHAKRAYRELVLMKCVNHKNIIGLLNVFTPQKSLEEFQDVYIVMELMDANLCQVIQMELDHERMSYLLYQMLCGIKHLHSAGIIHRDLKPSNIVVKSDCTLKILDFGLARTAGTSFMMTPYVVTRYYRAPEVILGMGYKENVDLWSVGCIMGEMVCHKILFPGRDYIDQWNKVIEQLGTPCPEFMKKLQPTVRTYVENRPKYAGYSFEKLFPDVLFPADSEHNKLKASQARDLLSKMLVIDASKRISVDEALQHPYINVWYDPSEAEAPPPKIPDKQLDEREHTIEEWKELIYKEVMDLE
T6 sequence (Q96GD4 whole entry): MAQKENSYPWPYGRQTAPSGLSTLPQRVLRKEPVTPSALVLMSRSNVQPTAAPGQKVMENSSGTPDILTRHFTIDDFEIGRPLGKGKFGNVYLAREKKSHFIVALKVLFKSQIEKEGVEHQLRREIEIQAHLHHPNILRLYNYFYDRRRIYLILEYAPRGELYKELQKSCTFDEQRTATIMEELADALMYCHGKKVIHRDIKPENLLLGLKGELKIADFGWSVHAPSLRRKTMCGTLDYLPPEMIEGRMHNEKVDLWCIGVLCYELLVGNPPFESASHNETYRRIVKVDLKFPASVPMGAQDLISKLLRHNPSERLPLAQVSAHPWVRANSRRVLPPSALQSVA
T4 sequence (P49137 64-325): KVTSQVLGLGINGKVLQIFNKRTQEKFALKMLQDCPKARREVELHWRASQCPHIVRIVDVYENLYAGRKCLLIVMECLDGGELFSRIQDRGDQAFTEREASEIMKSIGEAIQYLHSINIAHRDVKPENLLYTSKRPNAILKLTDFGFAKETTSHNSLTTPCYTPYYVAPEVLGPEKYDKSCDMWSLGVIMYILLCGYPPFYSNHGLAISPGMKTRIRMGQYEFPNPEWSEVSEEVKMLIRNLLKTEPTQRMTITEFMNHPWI
T7 sequence (Q8TDX7 whole entry): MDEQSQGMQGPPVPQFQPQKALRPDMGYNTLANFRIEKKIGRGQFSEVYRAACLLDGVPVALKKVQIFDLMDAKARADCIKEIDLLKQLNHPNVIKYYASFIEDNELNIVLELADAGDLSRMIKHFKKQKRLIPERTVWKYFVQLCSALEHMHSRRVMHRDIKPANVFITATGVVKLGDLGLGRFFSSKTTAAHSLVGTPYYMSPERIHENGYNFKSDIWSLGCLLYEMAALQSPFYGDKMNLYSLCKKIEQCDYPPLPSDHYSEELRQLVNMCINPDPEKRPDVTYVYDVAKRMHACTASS

Row | Structure (SMILES) | ΔTm at 10 µM [1] [°C] | ΔTm at 10 µM [2] [°C] | ΔTm at 10 µM [3] [°C] | ΔTm at 10 µM [4] [°C] | ΔTm at 10 µM [5] [°C] | ΔTm at 10 µM [6] [°C] | ΔTm at 10 µM [7] [°C] | ΔTm RPS6KA5A [8] | ΔTm at 10 µM [9] [°C] | ΔTm at 10 µM [10] [°C]
1 | O=C(NCc1ccccc1)Nc1ccc2cc1OCCOCCNc1ccn3ncc-2c3n1 [compound 16] | 5 | -0.3 | – | – | – | – | – | – | – | –
2 | O=C(NCc1ccccc1Cl)Nc1ccc2cc1OCCOCCNc1ccn3ncc-2c3n1 [compound 17] | 2.1 | 0.9 | – | – | – | – | – | – | – | –
3 | O=C(NCc1cccc(Cl)c1)Nc1ccc2cc1OCCOCCNc1ccn3ncc-2c3n1 [compound 18] | 3.6 | 0.8 | – | – | – | – | – | – | – | –
4 | O=C(NCc1ccc(Cl)cc1)Nc1ccc2cc1OCCOCCNc1ccn3ncc-2c3n1 [compound 19] | 1.7 | 0.9 | – | – | – | – | – | – | – | –
5 | O=C(NCc1ccc(Cl)cc1Cl)Nc1ccc2cc1OCCOCCNc1ccn3ncc-2c3n1 [compound 20] | 1.4 | 2.7 | – | – | – | – | – | – | – | –
6 | O=C(NCc1ccc(Cl)cc1F)Nc1ccc2cc1OCCOCCNc1ccn3ncc-2c3n1 [compound 21] | 1.6 | 2 | – | – | – | – | – | – | – | –
7 | Cc1cc(Cl)ccc1CNC(=O)Nc1ccc2cc1OCCOCCNc1ccn3ncc-2c3n1 [compound 23] | 2.5 | 2 | – | – | – | – | – | – | – | –
8 | Cc1cc(Br)ccc1CNC(=O)Nc1ccc2cc1OCCOCCNc1ccn3ncc-2c3n1 [compound 24] | – | – | 1.6 | 0.1 | -1.3 | 7.7 | 1.6 | 1,0 °C | 0.6 | 0.2
9 | Cc1ccc(F)cc1CNC(=O)Nc1ccc2cc1OCCOCCNc1ccn3ncc-2c3n1 [compound 26] | – | – | 1 | 0.1 | -1.2 | 7.8 | 0.9 | 0,7 °C | 0.5 | 0.4
10 | O=C(NCc1ccccc1C(F)(F)F)Nc1ccc2cc1OCCOCCNc1ccn3ncc-2c3n1 [compound 27] | – | – | 1.9 | 0.1 | -0.4 | 8.6 | 2 | 1,3 °C | 0.5 | 0.5
11 | O=C(NCc1ccc(C(F)(F)F)cc1)Nc1ccc2cc1OCCOCCNc1ccn3ncc-2c3n1 [compound 28] | – | – | 2.2 | 0.4 | 0.4 | 9 | 2.3 | 1,5 °C | 0.9 | 0.3
12 | COc1ccccc1CNC(=O)Nc1ccc2cc1OCCOCCNc1ccn3ncc-2c3n1 [compound 29] | – | – | -0.1 | 0.2 | -0.3 | 6.6 | 1.7 | 0,2 °C | 1.1 | 0.5
13 | COc1cccc(CNC(=O)Nc2ccc3cc2OCCOCCNc2ccn4ncc-3c4n2)c1 [compound 30] | – | – | 0.2 | 0.2 | -0.5 | 7.3 | 1 | 0,3 °C | 1.2 | 0.4
14 | COc1ccc(CNC(=O)Nc2ccc3cc2OCCOCCNc2ccn4ncc-3c4n2)cc1 [compound 31] | – | – | 1 | 0.2 | -1.3 | 7.6 | 0.6 | – | 1.1 | 0.7
15 | COc1ccc(CNC(=O)Nc2ccc3cc2OCCOCCNc2ccn4ncc-3c4n2)cc1F [compound 32] | – | – | 1.5 | 0.2 | -1.3 | 7.9 | 1.3 | 1,1 °C | 0.8 | 0.4
16 | COc1cc(CNC(=O)Nc2ccc3cc2OCCOCCNc2ccn4ncc-3c4n2)ccc1F [compound 33] | – | – | 1.2 | 0.1 | -1.3 | 9.1 | 1.4 | 0,7 °C | 0.9 | 0.4
17 | C[C@H](NC(=O)Nc1ccc2cc1OCCOCCNc1ccn3ncc-2c3n1)c1ccccc1 [compound 34] | – | – | 0.5 | 0.1 | -1.3 | 7.1 | 0.9 | 0,6 °C | 0.9 | 0.4
18 | CN1CCN(C(=O)Nc2ccc3cc2OCCOCCNc2ccn4ncc-3c4n2)CC1 [compound 35] | 3 | 0 | – | – | – | – | – | – | – | –
